Data set [1] can be described thus: Dissolution testing of MK-7 nanosuspension in FeSSIF (summary study 2). In kind it is physicochemical. As to conditions: FeSSIF pH 5, 37 °C, 0.0104 mg/mL. As to the method: MK-7 (menaquinone-7, API) was suspended in an aqueous vehicle containing wetting agent, sodium deoxycholate. The API concentration was 4% and the wetting agent concentration was 0.4% w/w. The API particles were milled to a particle size of 156 nm by use of zirconium milling beads and high shear Beadbeater mixing. The dissolution of the nanosuspension was tested at a concentration of 0.01 mg/mL, in triplicate, in pH 5 FeSSIF.
Clean dissolution system with DI water. Fill 3× vessels with 500 mL of FeSSIF media and heat to 37° C. Set up the following dissolution conditions:
Vortex suspension×1 minute so that it is uniform. Weigh 3×0.15 g portions of nanosuspension into a tared syringe to give a target 100% dissolution concentration of 0.01 mg/mL. Record weight. Add weighed suspension directly to each vessel. Start at Timer.
At 5 mins, manually pull up 3 mL from each vessel in a syringe. Attach a 0.2 μm filter to the syringe. Transfer 2 mL of the aliquot back into the vessel. Transfer the final 1 mL of aliquot to an HPLC vial and crimp seal. Repeat Steps #8-11 at 10, 15, 30, 45 and 60 mins. After the 60-minute time-point, mix each vessel for 5 minutes with a high shear mixer. Repeat Step #8-11 and label this sample as ‘infinity’.
Run samples on HPLC 10-minute HPLC method with replicate HPLC STDs.

A short description of data set [2]: Dissolution testing of MK-7 nanosuspension in FeSSIF (study 1, 500 mL media). In kind it is physicochemical. The settings on record: FeSSIF pH 5, 37 °C, 0.01 mg/mL drug load. As to the method: MK-7 (menaquinone-7, API) was suspended in an aqueous vehicle containing wetting agent sodium deoxycholat. The API concentration was 4% and the wetting agent concentration was 0.4% w/w. The API particles were milled to a particle size of 155 nm using zirconium milling beads and high shear Beadbeater mixing. The dissolution of the nanosuspension was tested at a concentration of 0.01 mg/mL, in triplicate, in pH 5 Fed State Simulated Intestinal Fluid (FeSSIF).
1. Clean dissolution system with DI water. Prepare FeSSIF: 2. Fill three (3) vessels with 500 mL of FeSSIF media and heat to 37° C. 3. Set up the following dissolution conditions:
4. Vortex suspension x for approximately one minute so that it is uniform. Weigh three (3) aliquots of 0.15 g of the 4% nanosuspension into a tared syringe to give a target 100% dissolution concentration of 0.01 mg/mL. Record weight. 5. Add weighed suspension directly to each vessel. 6. Start at Timer. 7. After five minutes, manually pull up 3 mL from each dissolution vessel in a syringe. 8. Attach a 0.2 μm filter to the syringe. 9. Transfer 2 mL of the dissolution sample back into the vessel. 10. Transfer the final 1 mL of sample to an amber HPLC vial and crimp seal. 11. Repeat Steps #8-11 at 10, 15, 30, 45 and 60 mins. 12. After the 60-minute time-point, mix each vessel for 5 minutes with a high shear mixer. 13. Repeat Step #8-11 and label this sample as ‘infinity’. 14. Run samples on HPLC 10 minutes HPLC method with replicate HPLC standard solutions.

The next data set concerns caspase-3. The settings on record: concentration of 10 mcmol/L; cited from earlier work.
For the next data set, the system named is PC12 cells. As to conditions: cited from earlier work.
Where [3] appears, read: Infinity (after 5 min high shear mixing).

Consider `CC(C)=CCC/C(C)=C/CC/C(C)=C/CC/C(C)=C/CC/C(C)=C/CC/C(C)=C/CC/C(C)=C/CC1=C(C)C(=O)c2ccccc2C1=O` [API, menaquinone-7], for which the “% Dissolution (Avg of n = 3)” value in data set [1] (setting [3]) was determined as 10.1%; in data set [1] (timepoint 0 min) it was 0.0%; in data set [1] (timepoint 5 min), 4.1%; in data set [1] (timepoint 10 min), 9.1%; in data set [1] (timepoint 15 min), 8.3%; in data set [1] (timepoint 30 min) it was 16.6%. The “% Dissolution (Avg of n = 3)” value was determined as 7.9% in data set [1] (timepoint 45 min); 5.3% in data set [1] (timepoint 60 min); 97.0% in data set [2] (setting [3]); 0% in data set [2] (timepoint 0 min); 96.7% in data set [2] (timepoint 10 min); 97.3% in data set [2] (timepoint 15 min). Further, the results for the “% Dissolution (Avg of n = 3)” value in data set [2] (timepoint 30 min), in data set [2] (timepoint 45 min) and in data set [2] (timepoint 60 min) were 97.8%, 97.7% and 95.7%, respectively.

vitamin K2: the “decrease of caspase-3 activity” value in the data set on caspase-3 was 2.5 fold. For the same molecule, the “neuronal death resulting from Aβ(1-42)” value in the data set on PC12 cells (PC12 cells) is recorded as “prevented neuronal death”. For the same molecule, the “apoptosis after exposure to H2O2 or Aβ(1-42)” value in the data set with PC12 cells (cells pretreated with vitamin K2) was “significantly less apoptosis”.

The values above are taken from patent publication US12383514B2, “Nano-particles of menaquinone and methods of treatment” (Epizon, Inc., priority 2023, dated 2025).
